In brackets after ≈: the same amount, converted by molar mass. Counter-ions that a name gives are not always drawn. Like-named read-outs stand apart in the source and are kept apart here.
What was measured:
B16F10 mouse melanoma = assay: In vitro cytotoxicity (MTT), B16F10; assay type: cell-based; settings: B16-F10, 72 h, read-out: In Vitro Cytotoxicity (IC50)
Protocol: (§1) Metabolic activity was measured by the cells' ability to reduce the tetrazolium dye, 3-(4,5-dimethylthiazol-2-yl)-2,5-diphenyltetrazolium bromide (MTT), to a quantifiable colored formasan derivative. Surviving cells reduce the MTT dye. The inhibitory concentrations of killing 50% of the cells (IC50 s) were calculated. Testing was in accord with the following protocol:
(§2) Test compounds and a reference antineoplastic agent, ADRIAMYCIN (doxorubicin hydrochloride), were dissolved in dimethyl sulfoxide (DMSO) and diluted, first with Earle's Balanced Salt Solution, followed by culture medium, to twice the highest concentration of the compound to be tested. From this concentrated stock, two-fold serial dilutions were prepared in 96-well microtiter trays, each well containing twice the desired final concentration of the compound. Each concentration was tested in triplicate and compared to triplicate drug-free controls.
(§3) The cells were grown in the same medium used for diluting the compounds. Adherent cells were harvested by trypsinization according to the following procedure:
(§4) After harvesting by trypsinization, viable cell counts were determined and cell density was adjusted to 25,000 cells/mL. Inoculum (0.1 mL) was then added to each well for a final concentration of 2,500 cells per well. Addition of the inoculum was used to dilute the test compounds to the desired concentration.
(§5) Microtiter trays were incubated for three days at 36° C. in a humidified atmosphere containing 5% carbon dioxide.
(§6) After three days, 20 microliters of 5 mg/mL MTT in phosphate-buffered solution were added to each well of the microtiter trays. The microtiter trays were then returned to the incubator for two to four hours to allow the surviving cells to reduce the dye. After this incubation, both the medium and the unreduced dye were removed by aspiration. DMSO was added to each well to dissolve the water-insoluble, colored end product of the dye reduction for spectrophotometric measurement at 570 nm.
(§7) Compounds from Examples 4, 6, 8, 9 and 10 were additionally tested against human and murine tumor cell lines A549, HT-29, P388-D1, P388, P388-ADR(0.0), P388-ADR(0.1) and B16F109. (P388 is a mouse leukemia cell line similar to P388-D1, but animal-passaged; P388-ADR (0.0) is an ADRIAMYCIN-resistant variant of P388, the inoculum of which is grown in drug-free medium; P388-ADR (0.1) is an ADRIAMYCIN-resistant variant of P388, the inoculum of which is grown in medium with 0.1 mcg.ml ADRIAMYCIN; and B16F10 is a mouse melanoma.) The results are presented in Table 2; as shown in the table, the compounds of the present invention are effective cytotoxic agents even against the ADRIAMYCIN-resistant cell line P388-ADR.

[1] = tested on: P388-D1 mouse leukemia cell line; assay: In vitro cytotoxicity (MTT), P388-D1; assay type: cell-based; settings: for IC50: Mus musculus, P388D1, 72 h, read-out: In Vitro Cytotoxicity (IC50), P388-D1
Protocol: as §1, §2, §3, §4, §5, §6
(§8) The results obtained which clearly show the cytotoxicity of the compounds of Examples 5, 6, 7 and 8 against […] tumor cell lines A549, HCT-8, HT-29 and P388-D1, are illustrated in Table 1. (A549 is a human lung cancer cell line; HCT-8 is a human colon cancer cell line; HT-29 is a human colon cancer cell line; and P388-D1 is a mouse leukemia cell line.)

[2] = tested on: P388-ADR(0.1), ADRIAMYCIN-resistant variant of P388; assay: In vitro cytotoxicity (MTT), P388-ADR(0.1); assay type: cell-based; settings: Mus musculus, 72 h, inoculum grown with 0.1 mcg.ml ADRIAMYCIN, Table 2, ADR value marked *: single test
Protocol: as §1, §2, §3, §4, §5
as §6, with “nm. […]” for “nm.”

[3] = tested on: HT-29 human colon cancer cell line; assay: In vitro cytotoxicity (MTT), HT-29; assay type: cell-based; settings: HT-29, 72 h
Protocol: as §1, §2, §3, §4, §5, §6, §8

[4] = tested on: P388-ADR(0.0), ADRIAMYCIN-resistant variant of P388; assay: In vitro cytotoxicity (MTT), P388-ADR(0.0); assay type: cell-based; settings: Mus musculus, 72 h, inoculum grown in drug-free medium, Table 2
Protocol: as §1, §2, §3, §4, §5, §6, §7

[5] = tested on: P388 mouse leukemia cell line; assay: In vitro cytotoxicity (MTT), P388; assay type: cell-based; settings: P388, 72 h, read-out: In Vitro Cytotoxicity (IC50)
Protocol: as §1, §2, §3, §4, §5, §6, §7

[6] = tested on: A549 human lung cancer cell line; assay: In vitro cytotoxicity (MTT), A549; assay type: cell-based; settings: A549, 72 h
Protocol: as §1, §2, §3, §4, §5, §6, §8

[7] = tested on: HCT-8 human colon cancer cell line; assay: In vitro cytotoxicity (MTT), HCT-8; assay type: cell-based; settings: HCT-8, 72 h, read-out: In Vitro Cytotoxicity (IC50)
Protocol: as §1, §2, §3
as §4, with “concentration. […]” for “concentration.”

M5076 ovarian sarcoma = assay: In vivo activity against M5076 ovarian sarcoma implanted subcutaneously; design: species or system mouse; settings: IP every 2 days, days 1-11
Protocol: For M5076 ovarian sarcoma, the solid tumor was implanted subcutaneously into mice on day 0. The compound to be tested (the compound of Example 8) was administered IP every 2 days up to day 11, starting on day 1. Both % MST(T/C) and % MTM(T/C) values were calculated, and are presented below.

P388 ascitic leukemia = assay: In vivo activity against systemic tumor P388; design: species or system mouse; settings: five days
Protocol: Prior to testing, P388 was propagated intraperitoneally in female DBA2 mice. The ascitic tumors were intraperitoneally injected in female B6 D2 F1 mice at a concentration of 10^6 cells per mouse. The mice were treated with antiumor agents administered once daily for five consecutive days, with the antineoplastic 5-fluorouracil used as a positive control.
All drugs were administered intraperitoneally in 5% aqueous dextrose or other suitable diluent. Drug efficacy was evaluated based on prolongation of mean survival time (MST). Improvement of MST was calculated as % MST(T/C), the percent ratio of mean survival times of test (T) versus control (C) mice. Compounds having % MST(T/C) values greater than 125 are considered to have significant activity. The antitumor activity of the two compounds in the P388 systemic leukemia model is illustrated in Table 3 below.

[8] = tested on: C-26 colon adenocarcinoma; assay: In vivo activity against C-26 colon adenocarcinoma implanted IP (Example 42); design: species or system mouse; settings: dose 40, IP days 1, 5, 9
Protocol: In the case of C-26 colon adenocarcinema, the tumor was implanted IP into mice on day 0. The compound to be tested. (the compound of Example 8) was administered IP at days 1, 5, and 9 and the results recorded on day 60. % MST(T/C) values were calculated as before and are shown below for two separate trials.

Aqueous solubility = assay type: physicochemical; settings: water
From the text: The effect of peptidyl substitution on the solubility of the compounds of the invention was examined by dissolving samples thereof in water.

Lewis lung carcinoma = assay: In vivo activity against Lewis lung carcinoma (subcutaneous); design: species or system mouse; settings: IP days 1-9, tumor weight day 14
Protocol: Compound A and the compound of Example 8 were also tested against solid tumors, namely Lewis lung carcinoma on the one hand and C-26 colon adenocarcinoma and M5076 ovadan sarcoma on the other. Lewis lung carcinoma was inoculated subcutaneously to flanks of mice on day 0. The compound being tested (Compound A) was administered intraperitoneally (IP) from day 1 to day 9 for a total of nine injections. Tumor weights were measured on day 14 and drug efficacy assessed based on reduction of mean tumor mass (MTM), expressed as the percent ratio of treated (T) to control (C) MTM's. Compounds having % MTM(T/C) values of less than or equal to 40 are considered to have significant activity. These values are shown below in Table 4.

[9] = Table 2, ADR value marked *: single test
[10] = read-out: In Vitro Cytotoxicity (IC50), HT-29, Table 2, ADR: average of two tests
[11] = read-out: In Vitro Cytotoxicity (IC50), A549, Table 1, three day MTT assay
[12] = read-out: In Vitro Cytotoxicity (IC50), A549, Table 2, ADR: average of two tests

| Structure (SMILES) | IC50 (B16F10 mouse melanoma) [µg/mL] | IC50 ([1]; Table 1, three day MTT assay) [µg/mL] | IC50 [1, 9] [µg/mL] | IC50 [2] [µg/mL] | IC50 [3, 10] [µg/mL] | IC50 [4] [µg/mL] | IC50 [5] [µg/mL] | IC50 [6, 11] [µg/mL] | IC50 [6, 12] [µg/mL] | IC50 [7] [µg/mL] | solubility (Aqueous solubility) [µg/mL] | further results |
| --- | --- | --- | --- | --- | --- | --- | --- | --- | --- | --- | --- | --- |
| Cc1ccc2c(c1)Oc1c(N3CCC(N)C3)c(F)cc3c(=O)c(C(=O)O)cn-2c13 (stereo not drawn) [Example 6, 1-(3-aminopyrrolidin-1-yl)-2-fluoro-9-methyl-4-oxo-4H-quino[2,3,4-i,j][1,4]benzoxazine-5-carboxylic acid hydrochloride] | 0.056 | 0.067 | 0.08 | 0.2 | 0.076 | 0.2 | 0.071 | 0.13 | 0.23 |  |  | IC50 ([3]; read-out: In Vitro Cytotoxicity (IC50), HT-29, Table 1, three day MTT assay): 0.049 µg/mL |
| COc1cccc2c1C(=O)c1c(O)c3c(c(O)c1C2=O)C[C@@](O)(C(=O)CO)C[C@@H]3O[C@H]1C[C@H](N)[C@H](O)[C@H](C)O1 [ADR, doxorubicin hydrochloride, reference compound] | 0.005 | 0.016 | 0.025 | 1.9 | 0.285 | 2.59 | 0.0022 |  | 0.313 | 0.038 |  | In Vitro Cytotoxicity (IC50) ([1]; P388-D1, Table 1, three day MTT assay, 4320 min, hydrochloride): 0.010 |
| CCC[C@H](N)C(=O)NC1CCN(c2c(F)cc3c(=O)c(C(=O)O)cn4c3c2Oc2ccccc2-4)C1 (stereo partly drawn) [Example 8, 1-(3-norvalylaminopyrrolidin-1-yl)-2-fluoro-4-oxo-4H-quino[2,3,4-i,j][1,4]benzoxazine-5-carboxylic acid hydrochloride] | 0.0271 | < 0.05 |  |  | 0.195 | 0.394 | 0.0395 | 0.512 | 0.591 | 0.075 | 10700 | M5706 % MST(T/C) (M5076 ovarian sarcoma; dose 5): 148.4%; M5706 % MTM(T/C) (M5076 ovarian sarcoma; dose 5): 62%; M5706 % MST(T/C) (M5076 ovarian sarcoma; dose 10): 154.4%; M5706 % MTM(T/C) (M5076 ovarian sarcoma; dose 10): 49%; M5706 % MST(T/C) (M5076 ovarian sarcoma; dose 20): 138.1%; M5706 % MTM(T/C) (M5076 ovarian sarcoma; dose 20): 22%; M5706 % MST(T/C) (M5076 ovarian sarcoma; dose 40): 39.1%; % MST(T/C) (P388 ascitic leukemia; 3.9 mg/kg IP once daily): 177.3%; % MST(T/C) (P388 ascitic leukemia; 7.81 mg/kg IP once daily): 200.0%; % MST(T/C) (P388 ascitic leukemia; 15.62 mg/kg IP once daily): 209.1%; % MST(T/C) (P388 ascitic leukemia; 31.25 mg/kg IP once daily): 63.6%; C-26 % MST(T/C) ([8]; first trial): 52.3%; C-26 % MST(T/C) ([8]; second trial): 43.9% |
| NC1CCN(c2c(F)cc3c(=O)c(C(=O)O)cn4c3c2Oc2ccccc2-4)C1 (stereo not drawn) [Compound A, 1-(3-aminopyrrolidin-1-yl)-2-fluoro-4-oxo-4H-[2,3,4-i,j][1,4]benzoxazine-5-carboxylic acid] | 0.021 (≈ 0.0551 µM) |  |  |  | 0.1 (≈ 0.262 µM) | 0.12 (≈ 0.315 µM) | 0.019 (≈ 0.0498 µM) |  | 0.26 (≈ 0.682 µM) |  | 8800 (≈ 23100 µM) | % MST(T/C) (P388 ascitic leukemia; 6.25 mg/kg IP once daily): 160%; % MST(T/C) (P388 ascitic leukemia; 12.5 mg/kg IP once daily): 165%; % MST(T/C) (P388 ascitic leukemia; 25 mg/kg IP once daily): 170%; % MST(T/C) (P388 ascitic leukemia; 50 mg/kg IP once daily): 180%; Lewis Lung % MTM(T/C) (Lewis lung carcinoma; dose 6.25): 68%; Lewis Lung % MTM(T/C) (Lewis lung carcinoma; dose 12.5): 67%; Lewis Lung % MTM(T/C) (Lewis lung carcinoma; dose 25): 47%; Lewis Lung % MTM(T/C) (Lewis lung carcinoma; dose 50): 41% |
| Cc1ccc2c(c1)Oc1c(N3CCC(NC(=O)[C@H](C)N)C3)c(F)cc3c(=O)c(C(=O)O)cn-2c13 (stereo partly drawn) [Example 9, 1-(3-alanylaminopyrrolidin-1-yl)-2-fluoro-9-methyl-4-oxo-4H-quino[2,3,4-i,j][1,4]benzoxazine-5-carboxylic acid hydrochloride] | 0.048 |  | 0.081 | 0.18 | 0.075 | 0.19 | 0.062 |  | 0.23 |  |  |  |
